{
  "source": "patent US20240139223A1",
  "about": "“SOY ISOFLAVONES FOR ASTHMA PREVENTION” (University of South Florida, priority 2021, published 2024)",
  "key": {"pDCs": {"tested_on": "pDCs", "conditions": "cited from earlier work"}, "human rhinovirus (HRV)": {"tested_on": "human rhinovirus (HRV)", "conditions": "compared with guideline-driven care alone; cited from earlier work"}, "[1]": {"tested_on": "PAI-1 production in normal human bronchial epithelial (NHBE) cells", "experiment": "TGF-β1-induced PAI-1 gene expression and protein production in NHBE cells (real-time PCR, ELISA)", "type": "cell-based", "conditions": "for TGF-β1-induced PAI-1 protein production: 6 hours, NHBE", "method": "Normal human bronchial epithelial (NHBE) cells were cultured, as previously described in Cho S H, Lee S H, Kato A, Takabayashi T, Kulka M, Shin S C, et al. Cross-talk between human mast cells and bronchial epithelial cells in plasminogen activator inhibitor-1 production via transforming growth factor-b1. Am J Respir Cell Mol Biol 2015; 52:88-95, herein incorporated by reference in its entirety into this disclosure. […] Cell pellets were used for real-time PCR, and cell-culture supernatants were used for PAI-1 protein ELISA.\nThe PAI-1 concentration in the blood of subjects and supernatants of NHBE cells was measured in duplicate by means of ELISA (Assay Pro, St Charles, Mo), as previously described in Cho et al. 2015, herein incorporated by reference in its entirety into this disclosure. For mRNA analysis of PAI-1 (Hs00167155_m1), quantitative real-time PCR was performed with the ViiA 7 Real-Time PCR System (Applied Biosystems, Foster City, Calif). Expression of glyceraldehyde-3-phosphate dehydrogenase (GAPDH; Hs02786624_g1) was used as an internal control for normalization. Cycling conditions were as follows: 50° C. for 2 minutes (hold) for 1 cycle, 95° C. for 10 minutes (hold) for 1 cycle, and 95° C. for 15 seconds and 60° C. for 1 minute (cycling) for 40 cycles. Relative gene expression was calculated by using the comparative 2^−ΔΔCT method.\nTo investigate the cellular mechanism of the soy isoflavone/PAI-1 link, the inventors treated cultured NHBE cells with TGF-β1 (2 ng/mL) for 6 hours with and without genistein pretreatment. There was a significant increase in PAI-1 mRNA and protein production (about 10-fold) after adding TGF-β1 (FIG. 1). […] Soy isoflavones reduce asthma exacerbation in high PAI-1 producing genotype. (FIG. 2)\nThere was a significant increase of the PAI-1 mRNA and protein production (about 10-fold) after adding the TGF-β1 (FIG. 5)."}, "[2]": {"tested_on": "murine model of asthma (BALB/c mice)", "experiment": "Airway hyperresponsiveness (total respiratory system resistance, FlexiVent) in OVA murine model of asthma", "type": "in vivo, mouse", "conditions": "summary", "method": "Eight-week-old BALB/c mice were purchased from The Jackson Lab and housed in standard laboratory conditions (12/12-h light/dark cycle, 22-24° C., 40-60% humidity). Forty female mice were divided into four groups (namely, OVA+Veh, OVA+Bio300, PBS+Veh, PBS+Bio300). Genistein (Bio300, Humanetics Corp.) was administered to two of the groups in conjunction with either OVA or PBS. The mice in each group (n=10) were equally divided into two cages (5 mice/cage) to provide appropriate space for the mice. […]\nFrom Day 14 to Day 28, the OVA+Bio300 and PBS+Bio300 groups received Bio300 (100 ul) by oral gavage every other day. […] On Day 29, airway hyperresponsiveness (AHR) was assessed and tissues were obtained for further analysis.\nAll mice were anesthetized with ketamine, tracheostomized, and mechanically ventilated with a FlexiVent system (SCIREQ, Flexivent, Scireq Inc., Montreal, Canada) as described in Choi et al., incorporated by reference in its entirety herein. […] Volume changes due to thoracic expansion and alterations in tracheal pressure were measured in response to challenges with increasing concentrations of methacholine (3, 6, 12, 25, and 50 mg/mL) and reported as total respiratory system resistance (Rrs)."}},
  "data": [
    {"compound": "omalizumab: costly biological agent blocking IgE, administered by injection", "values": [
      {"measurement": "Interferon alpha production from pDCs", "setting": "pDCs; ex vivo and in vivo treatment", "result": "restored"},
      {"measurement": "Reduction of FcεRIα expression on pDCs", "setting": "pDCs; omalizumab treatment, previous study", "result": "about 57%"},
      {"measurement": "Duration of HRV infections, viral shedding, and risk of HRV-related illness", "setting": "human rhinovirus (HRV)", "result": "decreased"}
    ]},
    {"compound": "TGF-β1: recombinant human TGF-β1 (R&D Systems), stimulus of PAI-1 production [reference compound]", "values": [
      {"measurement": "Increase in PAI-1 mRNA and protein production", "setting": "[1]; NHBE cells, TGF-β1 2 ng/mL for 6 hours", "result": "about 10 fold"}
    ]},
    {"compound": "O=c1c(-c2ccc(O)cc2)coc2cc(O)cc(O)c12", "note": "[genistein]", "values": [
      {"measurement": "PAI-1 production from human bronchial EC and mast cells", "setting": "[1]; FIG. 5 legend", "result": "significantly reduces"},
      {"measurement": "TGF-β1-induced PAI-1 gene expression and protein production", "setting": "[1]; NHBE cells, genistein pretreatment", "result": "significantly reduced"},
      {"measurement": "TGF-β1-induced PAI-1 protein production", "setting": "[1]; genistein 1 μM pretreatment, TGF-β1 2 ng/ml", "result": "360700 ± 10500", "unit": "pg/mL"},
      {"measurement": "TGF-β1-induced PAI-1 protein production", "setting": "[1]; genistein 5 μM pretreatment, TGF-β1 2 ng/ml", "result": "306.0 ± 5.3", "unit": "pg/mL"},
      {"measurement": "TGF-β1-induced PAI-1 protein production", "setting": "[1]; genistein 5 mmol/L pretreatment, TGF-β1 2 ng/mL", "result": "306.0 ± 5.3", "unit": "pg/mL"},
      {"measurement": "Allergic inflammation and airway hyperreactivity", "setting": "[2]", "result": "reduced allergic inflammation and improved airway hyperreactivity"}
    ]}
  ]
}
